From patent US20080262056A1, “Oxindole Oxazolidinones as Antibacterial Agents” (Pfizer Inc, priority 2004, published 2008)
≈ marks a conversion by molar mass, not a printed value.

Tests used:
Type in all cases: cell-based
S. pneumoniae SV1 SP-3 = assay: in vitro antibacterial activity (MIC), S. pneumoniae; conditions: Streptococcus pneumoniae, SV1SP3
Excerpt: (§1) The in vitro antibacterial activity of the compounds of the present invention may be assessed by following procedures recommended in (1) National Committee for Clinical Laboratory Standards (January 2003), Methods for dilution antimicrobial tests for bacteria that grow aerobically, Approved Standard (6th ed), M7-A6, NCCLS, Wayne, Pa.; (2) National Committee for Clinical Laboratory Standards (March 2001), Methods for antimicrobial susceptibility testing of anaerobic bacteria, Approved Standard (5th ed), M11-A4, NCCLS, Wayne, Pa.; (3) National Committee for Clinical Laboratory Standards (Jan. 2003), MIC testing supplemental tables, M100-S13 (for use with M7-A6), NCCLS, Wayne, Pa.; and (4) Murray P R, Baron E J, Jorgensen J H, et al. Manual of Clinical Microbiology (8th ed) Washington, D.C.: American Society for Microbiology Press, 2003. The MIC value is the lowest concentration of drug which prevented macroscopically visible growth under the conditions of the test.

E. faecalis MGH-2 EF 1-1 = assay: in vitro antibacterial activity (MIC), E. faecalis; conditions: Enterococcus faecalis, MGH2EF11
Excerpt: as §1

S. aureus UC-76 SA-1 = assay: in vitro antibacterial activity (MIC), S. aureus; conditions: for MIC90: Staphylococcus aureus, UC76, S. aureus UC-76 SA-1
Excerpt: as §1

Structure (SMILES)	MIC90 (S. pneumoniae SV1 SP-3)	MIC90 (E. faecalis MGH-2 EF 1-1)	MIC90 (S. aureus UC-76 SA-1)	in vitro antibacterial activity MIC90 (S. aureus UC-76 SA-1; S. aureus UC-76 SA-1)
CCC(=O)NC[C@H]1CN(c2ccc3c(c2)CC(=O)N3C(C)C)C(=O)O1 [Example 14, (S)—N-[3-(1-isopropyl-2-oxo-2,3-dihydro-1H-indol-5-yl)-2-oxo-oxazolidin-5-ylmethyl]-propionamide]	4 µg/mL (≈ 11.6 µM)	8 µg/mL (≈ 23.2 µM)	8 µg/mL (≈ 23.2 µM)	
CC(=O)NC[C@H]1CN(c2cc(F)c3c(c2)CC(=O)N3CCF)C(=O)O1 [Example 11, (S)—N-{3-[7-fluoro-1-(2-fluoro-ethyl)-2-oxo-2,3-dihydro-1H-indol-5-yl]-2-oxo-oxazolidin-5-ylmethyl}-acetamide]	1 µg/mL (≈ 2.83 µM)	2 µg/mL (≈ 5.66 µM)	4 µg/mL (≈ 11.3 µM)	
CC(=O)NC[C@H]1CN(c2cc(F)c3c(c2)CC(=O)N3C)C(=O)O1 [Example 3, N-[3-(7-fluoro-1-methyl-2-oxo-2,3-dihydro-1H-indol-5-yl)-2-oxo-oxazolidin-5-ylmethyl]-acetamide]	2 µg/mL (≈ 6.22 µM)	4 µg/mL (≈ 12.4 µM)	4 µg/mL (≈ 12.4 µM)	
CCN1C(=O)Cc2cc(N3C[C@H](CNC(C)=O)OC3=O)cc(F)c21 [Example 7, (S)—N-[3-(1-ethyl-7-fluoro-2-oxo-2,3-dihydro-1H-indol-5-yl)-2-oxo-oxazolidin-5-ylmethyl]-acetamide]	2 µg/mL (≈ 5.96 µM)	2 µg/mL (≈ 5.96 µM)	2 µg/mL (≈ 5.96 µM)	
CCCN1C(=O)Cc2cc(N3C[C@H](CNC(=O)CC)OC3=O)cc(F)c21 [Example 20, (S)—N-[3-(7-Fluoro-2-oxo-1-propyl-2,3-dihydro-1H-indol-5-yl)-2-oxo-oxazolidin-5-ylmethyl]-propionamide]	4 µg/mL (≈ 11 µM)	8 µg/mL (≈ 22 µM)	8 µg/mL (≈ 22 µM)	
CC(=O)NC[C@H]1CN(c2ccc3c(c2)CC(=O)N3C2CC2)C(=O)O1 [Example 21, (S)—N-[3-(1-cyclopropyl-2-oxo-2,3-dihydro-1H-indol-5-yl)-2-oxo-oxazolidin-5-ylmethyl]-acetamide]	2 µg/mL (≈ 6.07 µM)	4 µg/mL (≈ 12.1 µM)	8 µg/mL (≈ 24.3 µM)	
CC(=O)NC[C@H]1CN(c2cc(F)c3c(c2)CC(=O)N3CC2CC2)C(=O)O1 [Example 29, (S)—N-[3-(1-cyclopropylmethyl-7-fluoro-2-oxo-2,3-dihydro-1H-indol-5-yl)-2-oxo-oxazolidin-5-ylmethyl]-acetamide]	2 µg/mL (≈ 5.53 µM)	2 µg/mL (≈ 5.53 µM)	2 µg/mL (≈ 5.53 µM)	
CCC(=O)NC[C@H]1CN(c2ccc3c(c2)CC(=O)N3CCF)C(=O)O1 [Example 10, (S)—N-{3-[1-(2-fluoro-ethyl)-2-oxo-2,3-dihydro-1H-indol-5-yl]-2-oxo-oxazolidin-5-ylmethyl}-propionamide]	2 µg/mL (≈ 5.72 µM)	2 µg/mL (≈ 5.72 µM)	8 µg/mL (≈ 22.9 µM)	4 µg/mL
CCCN1C(=O)Cc2cc(N3C[C@H](CNC(C)=O)OC3=O)ccc21 [Example 17, (S)—N-[2-oxo-3-(2-oxo-1-propyl-2,3-dihydro-1H-indol-5-yl)-oxazolidin-5-ylmethyl]-acetamide]	2 µg/mL (≈ 6.04 µM)	4 µg/mL (≈ 12.1 µM)	4 µg/mL (≈ 12.1 µM)	
CCC(=O)NC[C@H]1CN(c2ccc3c(c2)CC(=O)N3CC2CC2)C(=O)O1 [Example 27, (S)—N-[3-(1-cyclopropylmethyl-2-oxo-2,3-dihydro-1H-indol-5-yl)-2-oxo-oxazolidin-5-ylmethyl]-propionamide]	4 µg/mL (≈ 11.2 µM)	8 µg/mL (≈ 22.4 µM)	8 µg/mL (≈ 22.4 µM)	
CCC(=O)NC[C@H]1CN(c2cc(F)c3c(c2)CC(=O)N3C)C(=O)O1 [Example 4, (S)—N-[3-(7-fluoro-1-methyl-2-oxo-2,3-dihydro-1H-indol-5-yl)-2-oxo-oxazolidin-5-ylmethyl]-propionamide]	2 µg/mL (≈ 5.96 µM)	4 µg/mL (≈ 11.9 µM)	8 µg/mL (≈ 23.9 µM)	
CCC(=O)NC[C@H]1CN(c2cc(F)c3c(c2)CC(=O)N3CCF)C(=O)O1 [Example 12, (S)—N-{3-[7-fluoro-1-(2-fluoro-ethyl)-2-oxo-2,3-dihydro-1H-indol-5-yl]-2-oxo-oxazolidin-5-ylmethyl}-propionamide]	4 µg/mL (≈ 10.9 µM)	4 µg/mL (≈ 10.9 µM)	8 µg/mL (≈ 21.8 µM)	
CCC(=O)NC[C@H]1CN(c2ccc3c(c2)CC(=O)N3C2CC2)C(=O)O1 [Example 22, (S)—N-[3-(1-cyclopropyl-2-oxo-2,3-dihydro-1H-indol-5-yl)-2-oxo-oxazolidin-5-ylmethyl]-propionamide]	4 µg/mL (≈ 11.6 µM)	4 µg/mL (≈ 11.6 µM)	8 µg/mL (≈ 23.3 µM)	
CC(=O)NC[C@H]1CN(c2cc(F)c3c(c2)CC(=O)N3C(C)C)C(=O)O1 [Example 15, (S)—N-[3-(7-fluoro-1-isopropyl-2-oxo-2,3-dihydro-1H-indol-5-yl)-2-oxo-oxazolidin-5-ylmethyl]-acetamide]	2 µg/mL (≈ 5.72 µM)	2 µg/mL (≈ 5.72 µM)	4 µg/mL (≈ 11.4 µM)	
CCN1C(=O)Cc2cc(N3C[C@H](CNC(C)=O)OC3=O)ccc21 [Example 5, (S)—N-[3-(1-ethyl-2-oxo-2,3-dihydro-1H-indol-5-yl)-2-oxo-oxazolidin-5-ylmethyl]-acetamide]	2 µg/mL (≈ 6.3 µM)	8 µg/mL (≈ 25.2 µM)	8 µg/mL (≈ 25.2 µM)	
CCC(C)N1C(=O)Cc2cc(N3C[C@H](CNC(C)=O)OC3=O)ccc21 (stereo partly drawn) [Example 24, (S)—N-[3-(1-sec-butyl-2-oxo-2,3-dihydro-1H-indol-5-yl)-2-oxo-oxazolidin-5-ylmethyl]-acetamide]	4 µg/mL (≈ 11.6 µM)	4 µg/mL (≈ 11.6 µM)	8 µg/mL (≈ 23.2 µM)	
CC(=O)NC[C@H]1CN(c2cc(F)c3c(c2)CC(=O)N3C2CC2)C(=O)O1 [Example 23, (S)—N-[3-(1-cyclopropyl-7-fluoro-2-oxo-2,3-dihydro-1H-indol-5-yl)-2-oxo-oxazolidin-5-ylmethyl]-acetamide]	4 µg/mL (≈ 11.5 µM)	4 µg/mL (≈ 11.5 µM)	8 µg/mL (≈ 23 µM)	
CCC(=O)NC[C@H]1CN(c2cc(F)c3c(c2)CC(=O)N3CC)C(=O)O1 [Example 8, (S)—N-[3-(1-ethyl-7-fluoro-2-oxo-2,3-dihydro-1H-indol-5-yl)-2-oxo-oxazolidin-5-ylmethyl]-propionamide]	4 µg/mL (≈ 11.4 µM)	2 µg/mL (≈ 5.72 µM)	4 µg/mL (≈ 11.4 µM)	
CC(=O)NC[C@H]1CN(c2ccc3c(c2)CC(=O)N3CCF)C(=O)O1 [Example 9, (S)—N-{3-[1-(2-fluoro-ethyl)-2-oxo-2,3-dihydro-1H-indol-5-yl]-2-oxo-oxazolidin-5-ylmethyl}-acetamide]	2 µg/mL (≈ 5.96 µM)	2 µg/mL (≈ 5.96 µM)	8 µg/mL (≈ 23.9 µM)	
CCCN1C(=O)Cc2cc(N3C[C@H](CNC(=O)CC)OC3=O)ccc21 [Example 18, (S)—N-[2-oxo-3-(2-oxo-1-propyl-2,3-dihydro-1H-indol-5-yl)-oxazolidin-5-ylmethyl]-propionamide]	4 µg/mL (≈ 11.6 µM)	8 µg/mL (≈ 23.2 µM)	8 µg/mL (≈ 23.2 µM)	
CCC(=O)NC[C@H]1CN(c2cc(F)c3c(c2)CC(=O)N3C(C)C)C(=O)O1 [Example 16, (S)—N-[3-(7-fluoro-1-isopropyl-2-oxo-2,3-dihydro-1H-indol-5-yl)-2-oxo-oxazolidin-5-ylmethyl]-propionamide]	4 µg/mL (≈ 11 µM)	4 µg/mL (≈ 11 µM)	8 µg/mL (≈ 22 µM)	
CCC(=O)NC[C@H]1CN(c2ccc3c(c2)CC(=O)N3C)C(=O)O1 [Example 2, (S)—N-[3-(1-methyl-2-oxo-2,3-dihydro-1H-indol-5-yl)-2-oxo-oxazolidin-5-ylmethyl]-propionamide]	1 µg/mL (≈ 3.15 µM)	2 µg/mL (≈ 6.3 µM)	8 µg/mL (≈ 25.2 µM)	
CC(=O)NC[C@H]1CN(c2ccc3c(c2)CC(=O)N3CC2CC2)C(=O)O1 [Example 26, (S)—N-[3-(1-cyclopropylmethyl-2-oxo-2,3-dihydro-1H-indol-5-yl)-2-oxo-oxazolidin-5-ylmethyl]-acetamide]	4 µg/mL (≈ 11.6 µM)	4 µg/mL (≈ 11.6 µM)	8 µg/mL (≈ 23.3 µM)	
CC(=O)NC[C@H]1CN(c2ccc3c(c2)CC(=O)N3C)C(=O)O1 [Example 1, (S)—N-[3-(1-methyl-2-oxo-2,3-dihydro-1H-indol-5-yl)-2-oxo-oxazolidin-5-ylmethyl]-acetamide]	1 µg/mL (≈ 3.3 µM)	2 µg/mL (≈ 6.59 µM)	8 µg/mL (≈ 26.4 µM)	
CCC(=O)NC[C@H]1CN(c2ccc3c(c2)CC(=O)N3CC)C(=O)O1 [Example 6, (S)—N-[3-(1-ethyl-2-oxo-2,3-dihydro-1H-indol-5-yl)-2-oxo-oxazolidin-5-ylmethyl]-propionamide]	2 µg/mL (≈ 6.04 µM)	2 µg/mL (≈ 6.04 µM)	4 µg/mL (≈ 12.1 µM)	
CC(=O)NC[C@H]1CN(c2ccc3c(c2)CC(=O)N3C(C)C)C(=O)O1 [Example 13, (S)—N-[3-(1-isopropyl-2-oxo-2,3-dihydro-1H-indol-5-yl)-2-oxo-oxazolidin-5-ylmethyl]-acetamide]	2 µg/mL (≈ 6.04 µM)	4 µg/mL (≈ 12.1 µM)	4 µg/mL (≈ 12.1 µM)	
CCC(=O)NC[C@H]1CN(c2ccc3c(c2)CC(=O)N3C(C)CC)C(=O)O1 (stereo partly drawn) [Example 25, (S)—N-[3-(1-sec-butyl-2-oxo-2,3-dihydro-1H-indol-5-yl)-2-oxo-oxazolidin-5-ylmethyl]-propionamide]	8 µg/mL (≈ 22.3 µM)	8 µg/mL (≈ 22.3 µM)	8 µg/mL (≈ 22.3 µM)	
CC(=O)NC[C@H]1CN(c2ccc3c(c2)CC(=O)N3C(C)CF)C(=O)O1 (stereo partly drawn) [Example 28, (S)—N-{3-[1-(2-fluoro-1-methyl-ethyl)-2-oxo-2,3-dihydro-1H-indol-5-yl]-2-oxo-oxazolidin-5-ylmethyl}-acetamide]	2 µg/mL (≈ 5.72 µM)	4 µg/mL (≈ 11.4 µM)	8 µg/mL (≈ 22.9 µM)	
